Measurements from PubChem BioAssay (NCI).
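48-hour exposure; five concentrations; linearly interpolated endpoints. TGI marks complete inhibition of growth.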

Experiments:
Test in all cases: NCI anticancer screen, dose series, 48 h
A549 NSCLC = system: A549 NSCLC
DLD-1 colon = system: DLD-1 colon
DMS 114 small cell lung = system: DMS 114 small cell lung
DMS 273 small cell lung = system: DMS 273 small cell lung
HOP-18 NSCLC = system: HOP-18 NSCLC
KM20L2 colon = system: KM20L2 colon
LXFL 529 NSCLC = system: LXFL 529 NSCLC
SNB-78 CNS = system: SNB-78 CNS
SR leukemia = system: SR leukemia

Measured: TGI

CCOC(=O)C(=O)Nc1ccc(Cl)cc1C
> 100 µM: all assays above
